Values joined by “and” are separate entries in the source; they are usually repeats but may differ in a detail not shown here. Identical values can stand only once. Counter-ions that a name gives are not always drawn. Like-named read-outs stand apart in the source and are kept apart here.
Tests used:
[1] = test system: S. hyodysenteriae; settings: cited from earlier work
[2] = test system: Lawsonia intracellularis; assay: Lawsonia intracellularis infection of IEC-18 rat enterocyte cell cultures; assay type: cell-based; settings: for Percentage ratio of Lawsonia intracellularis infection: listed as Valnemulin (ch); for percent of cells infected with Lawsonia intracellularis at 2 µg/mL: IEC-18, 2 μg/ml; for percent of cells infected with Lawsonia intracellularis at 2 µg/mL / percent of cells infected with Lawsonia intracellularis at 8 µg/mL: first strain column, read-out: Percentage ratio of Lawsonia intracellularis infection; for percent of cells infected with Lawsonia intracellularis at 8 µg/mL: IEC-18, 8 μg/ml
Description: The method of Lawson, G. H. K. et al., J. Clin. Microbiol. 31 (1993) 1136-1142 is generally followed, with some modifications (standard Kirby-Bauer disc methods are not applicable to intracellular bacteria):
Cells: Monolayers of IEC-18 rat enterocyte cell cultures (ATCC CRL 1589) are established and maintained by standard cell culture methods. One day old monolayers of dividing cells (approx. 30% confluence) are prepared for infection on day 0, on glass coverslips in small culture vials (Tracs).
Inocula: Batches of three strains of Lawsonia intracellularis are used as inocula. These are derived from pigs afflicted with proliferative enteropathy, of the proliferative haemorrhagic enteropathy (PHE) and porcine intestinal adenomatosis (PIA) forms prepared from pig intestines, and passaged in cell cultures as described in the above Lawson reference. The two PHE strains were partly tested for pathogenicity in pigs as described in McOrist, S. et al., Infect. Immun. 61 (1993) 4286-4292. Inocula batches are collected after several cell passages, and stored frozen at -70° C. in 1 ml vials. Preliminary trials established appropriate dilutions of thawed vials that would result in readily recognizeable cell infections in 5 day trials.
Antibiotics are prepared as 100× stock solutions for each use. Activity of each batch of antibiotic is confirmed by standard Kirby-Bauer disc methods with a laboratory strain of Escherichia coli.
Infections: On day 0, a vial of each strain is thawed, diluted 1/8 to 1/32 with culture medium, for use in four groups 1 to 4.
For group 4 (continuous treatment) this inoculum is initially incubated for one hour at 37° C. in culture medium containing the antibiotic at various concentrations prior to addition to cells.
For group 3 (extracellular activity) this inoculum is prepared in culture medium, containing the antibiotic at various concentrations added immediately prior to time of addition to cells.
For groups 1 (control) and 2 (intracellular activity) inocula are prepared in culture medium free of antibiotics and added to cells. Culture vials (Tracs) with cells with added inocula (+/- antibiotics) in a total of 0.5 ml of medium are placed in steel jars, evacuated to 40% atmosphere (8% O2), left for 2 min, replenished with hydrogen and finally 10% CO2. Tracs are then removed from these jars and placed into an incubator set to provide a humidified atmosphere of 8% O2, 8.8% CO2 and the remainder nitrogen, at 37° C.
On days 1 and 2 all vials are removed and refed with fresh medium, either containing antibiotics, groups 2 and 4, or not, groups 1 and 3, and replaced into the incubator. On day 5, all coverslips are removed and stained for Lawsonia intracellularis by indirect immunoperoxidase stain incorporating a specific monoclonal antibody. The number of cells on each coverslip, heavily infected with Lawsonia intracellularis (>30 per cell, heavily infected cell=HIC) is used as the main measure of infection. The number of foci of HIC and general cell observations are also noted. HIC in control (group 1), intracellularly active antibiotic assay (group 2), extracelluiarly active antibiotic assay (group 3) and continuous treatment assay (group 4) are compared in triplicate assays, for up to 3 strains each. Some assay are repeated for various inocula strengths. Percentage ratios are calculated after derivation of the mean HIC of the controls relevant to the test group. Mean control HIC is the total number of HIC in control Tracs divided by the number of infected control Tracs. The percentage ratio of test Tracs is then calculated by dividing their HIC value by the mean control HIC, multiplied by 100 to give a percentage.

[3] = test system: M. hyopneumoniae; assay: MIC against M. hyopneumoniae strains isolated from challenge material; assay type: cell-based, Mycoplasma hyopneumoniae; settings: Mesomycoplasma hyopneumoniae
[4] = Acute toxicity in the rat; assay type: in vivo
Description: The acute toxicity in the rat of the compound of formula I in hydrochloride salt form was determined with single doses of 1000 mg/kg and 2000 mg/kg orally administered to 5 male and 5 female rats per dose group. Deaths occurred within 1-8 days. The LD50 -value obtained is >1000 mg/kg p.o.

[5] = Lawsonia intracellularis, group 2 (intracellular activity)
[6] = Lawsonia intracellularis, group 3 (extracellular activity)

Structure (SMILES) | elimination of S. hyodysenteriae ([1]; tiamulin 35 and 40 ppm, Taylor 1980) | treatment of swine dysentery ([1]; tiamulin 100 ppm, less severely affected animals, Taylor 1982) | Percentage ratio of Lawsonia intracellularis infection ([2]; 4 μg/ml, group 2 (intracellular activity)) [%] | Percentage ratio of Lawsonia intracellularis infection ([2]; 4 μg/ml, group 3 (extracellular activity)) | Percentage ratio of Lawsonia intracellularis infection ([2]; 4 μg/ml, group 4 (continuous treatment)) | Percentage ratio of Lawsonia intracellularis infection ([2]; 8 μg/ml, group 2 (intracellular activity)) [%] | Percentage ratio of Lawsonia intracellularis infection ([2]; 8 μg/ml, group 3 (extracellular activity)) | Percentage ratio of Lawsonia intracellularis infection ([2]; 8 μg/ml, group 4 (continuous treatment)) | percent of cells infected with Lawsonia intracellularis at 2 µg/mL [2, 5] [%] | percent of cells infected with Lawsonia intracellularis at 2 µg/mL [2, 6] [%] | percent of cells infected with Lawsonia intracellularis at 8 µg/mL [2, 5] [%] | percent of cells infected with Lawsonia intracellularis at 8 µg/mL [2, 6] [%] | percent of cells infected with Lawsonia intracellularis at 8 µg/mL ([2]; Lawsonia intracellularis, group 4 (continuous treatment)) [%] | MIC ([2]; Lawsonia intracellularis, read-out: minimum concentration to cause significant inhibition of growth (<1% growth)) [µg/mL] | MIC ([3]; strain from material used in Trial 3) [µg/mL] | MIC ([3]; strain in material used in Trials 1 & 2) [µg/mL] | tolerability ([4]; in vivo) | LD50 ([4]; in vivo, po, single dose) [mg/kg] | time of deaths ([4]; oral 1000 and 2000 mg/kg) [days]
C=C[C@]1(C)C[C@@H](OC(=O)CSCCN(CC)CC)[C@]2(C)[C@H](C)CC[C@]3(CCC(=O)[C@H]32)[C@@H](C)[C@@H]1O [tiamulin hydrogen fumarate] | eliminate S. hyodysenteriae from faeces but not prevent the recovery from mucosal scrapings | successfully used under experimental conditions |  |  |  |  |  |  |  |  |  |  |  |  |  |  |  |  | 
C=C[C@]1(C)C[C@@H](OC(=O)CSC(C)(C)CNC(=O)[C@H](N)C(C)C)[C@]2(C)[C@H](C)CC[C@]3(CCC(=O)[C@H]32)[C@@H](C)[C@@H]1O [valnemulin hydrochloride, 14-O-[1-[(R)-2-amino-3-methylbutyrylamino]-2-methylpropan-2-ylthioacetyl]mutilin] |  |  | 1.7 | 0.83% and 1.7% | 0.8% and 2.5% | 0.86 | 0.2% and 1.4% | 0.5% and 1.4% and 0.2% | 0 | 0 | 0 | 0 | 0 | < 2 | 0.0078 | 0.016 | well tolerated | > 1000 | 1 to 8
